Test results: ChEMBL document CHEMBL1201862, “PubChem BioAssay data set” (2004)
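Following 48 hours of exposure in 96-well plates, responses at five concentrations were used to interpolate endpoints linearly. Abbreviation: GI50, concentration required for 50% inhibition of growth.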 The source made the active and inactive calls. No stated cut-off is given here; in the data, active = GI50 up to about 1.1 µM and inactive = higher.

Tests used:
Experiment in all cases: NCI tumour cell line growth inhibition, 48 h
SF-268 = system: SF-268
SW-620 = system: SW-620
KM12 = system: KM12
SK-MEL-5 = system: SK-MEL-5
HCC 2998 = system: HCC 2998
OVCAR-4 = system: OVCAR-4
PC-3 = system: PC-3
NCI-H460 = system: NCI-H460
EKVX = system: EKVX
OVCAR-3 = system: OVCAR-3
HCT-116 = system: HCT-116
CCRF-CEM = system: CCRF-CEM
SR = system: SR
786-0 = system: 786-0
NCI-H226 = system: NCI-H226
MCF7 = system: MCF7
HOP-62 = system: HOP-62
T47D = system: T47D
SNB-19 = system: SNB-19
MDA-N = system: MDA-N
SNB-75 = system: SNB-75
NCI/ADR-RES = system: NCI/ADR-RES
SK-OV-3 = system: SK-OV-3
SF-539 = system: SF-539
TK-10 = system: TK-10
LOX IMVI = system: LOX IMVI
RXF 393 = system: RXF 393
M14 = system: M14
CAKI-1 = system: CAKI-1
NCI-H23 = system: NCI-H23
MDA-MB-231 = system: MDA-MB-231
Malme-3M = system: Malme-3M
A549 = system: A549
UACC-62 = system: UACC-62
SF-295 = system: SF-295
K562 = system: K562
HT-29 = system: HT-29
HL-60 = system: HL-60
SK-MEL-28 = system: SK-MEL-28
UACC-257 = system: UACC-257
IGROV-1 = system: IGROV-1
COLO 205 = system: COLO 205
BT-549 = system: BT-549
A498 = system: A498
Hs-578T = system: Hs-578T
MOLT-4 = system: MOLT-4
U-251 = system: U-251
OVCAR-5 = system: OVCAR-5
HCT-15 = system: HCT-15
SN12C = system: SN12C
ACHN = system: ACHN
UO-31 = system: UO-31
DU-145 = system: DU-145
OVCAR-8 = system: OVCAR-8
RPMI-8226 = system: RPMI-8226
SK-MEL-2 = system: SK-MEL-2
MDA-MB-435 = system: MDA-MB-435
HOP-92 = system: HOP-92
NCI-H522 = system: NCI-H522

## N#CS/C(Cl)=C(/C(Cl)=C(Cl)Cl)[N+](=O)[O-]
SF-268
  GI50: 38 µM (inactive)
SW-620
  GI50: 29.7 µM (inactive)
KM12
  GI50: 47.6 µM (inactive)
SK-MEL-5
  GI50: 49.7 µM (inactive)
HCC 2998
  GI50: 39.8 µM (inactive)
OVCAR-4
  GI50: 48.3 µM (inactive)
PC-3
  GI50: 35.2 µM (inactive)
NCI-H460
  GI50: 42.8 µM (inactive)
EKVX
  GI50: > 100 µM (inactive)
OVCAR-3
  GI50: 21.9 µM (inactive)
HCT-116
  GI50: 25.4 µM (inactive)
CCRF-CEM
  GI50: 33 µM (inactive)
SR
  GI50: 24.7 µM (inactive)
786-0
  GI50: 28.2 µM (inactive)
NCI-H226
  GI50: > 100 µM (inactive)
MCF7
  GI50: 29.9 µM (inactive)
HOP-62
  GI50: > 100 µM (inactive)
T47D
  GI50: 37.2 µM (inactive)
SNB-19
  GI50: 1.89 µM (inactive)
MDA-N
  GI50: 34.6 µM (inactive)
SNB-75
  GI50: 32.3 µM (inactive)
NCI/ADR-RES
  GI50: 28.4 µM (inactive)
SK-OV-3
  GI50: > 100 µM (inactive)
SF-539
  GI50: 32.9 µM (inactive)
TK-10
  GI50: > 100 µM (inactive)
LOX IMVI
  GI50: 19.6 µM (inactive)
RXF 393
  GI50: 47.3 µM (inactive)
M14
  GI50: 34.4 µM (inactive)
CAKI-1
  GI50: 35.4 µM (inactive)
NCI-H23
  GI50: 33.3 µM (inactive)
MDA-MB-231
  GI50: 52.5 µM (inactive)
Malme-3M
  GI50: 20.7 µM (inactive)
A549
  GI50: > 100 µM (inactive)
UACC-62
  GI50: 47.2 µM (inactive)
SF-295
  GI50: 53.2 µM (inactive)
K562
  GI50: 40.7 µM (inactive)
HT-29
  GI50: 34.5 µM (inactive)
HL-60
  GI50: 29.1 µM (inactive)
SK-MEL-28
  GI50: 29.4 µM (inactive)
UACC-257
  GI50: 36.6 µM (inactive)
IGROV-1
  GI50: 37.5 µM (inactive)
COLO 205
  GI50: 30.5 µM (inactive)
BT-549
  GI50: 36.8 µM (inactive)
A498
  GI50: 79.6 µM (inactive)
Hs-578T
  GI50: 16.6 µM (inactive)
MOLT-4
  GI50: 36.3 µM (inactive)
U-251
  GI50: 35.8 µM (inactive)
OVCAR-5
  GI50: > 100 µM (inactive)
HCT-15
  GI50: 20.9 µM
SN12C
  GI50: 36.9 µM (inactive)
ACHN
  GI50: 31.3 µM (inactive)
UO-31
  GI50: 24.5 µM (inactive)
DU-145
  GI50: > 100 µM (inactive)
OVCAR-8
  GI50: 34.4 µM (inactive)

## O=C(O)CNc1ccc(C(=O)O)cc1
SF-268
  GI50: > 100 µM (inactive)
SW-620
  GI50: > 100 µM (inactive)
KM12
  GI50: > 100 µM (inactive)
SK-MEL-5
  GI50: > 100 µM (inactive)
OVCAR-4
  GI50: > 100 µM (inactive)
PC-3
  GI50: > 100 µM (inactive)
NCI-H460
  GI50: > 100 µM (inactive)
EKVX
  GI50: > 100 µM (inactive)
OVCAR-3
  GI50: > 100 µM (inactive)
HCT-116
  GI50: > 100 µM (inactive)
CCRF-CEM
  GI50: > 100 µM (inactive)
RPMI-8226
  GI50: > 100 µM (inactive)
786-0
  GI50: > 100 µM (inactive)
NCI-H226
  GI50: > 100 µM (inactive)
SK-MEL-2
  GI50: > 100 µM (inactive)
MCF7
  GI50: > 100 µM (inactive)
HOP-62
  GI50: > 100 µM (inactive)
T47D
  GI50: > 100 µM (inactive)
SNB-19
  GI50: > 100 µM (inactive)
MDA-N
  GI50: > 100 µM (inactive)
SNB-75
  GI50: > 100 µM (inactive)
MDA-MB-435
  GI50: > 100 µM (inactive)
NCI/ADR-RES
  GI50: > 100 µM (inactive)
HOP-92
  GI50: > 100 µM (inactive)
SK-OV-3
  GI50: > 100 µM (inactive)
SF-539
  GI50: > 100 µM (inactive)
TK-10
  GI50: > 100 µM (inactive)
LOX IMVI
  GI50: > 100 µM (inactive)
RXF 393
  GI50: > 100 µM (inactive)
M14
  GI50: > 100 µM (inactive)
CAKI-1
  GI50: > 100 µM (inactive)
NCI-H23
  GI50: > 100 µM (inactive)
MDA-MB-231
  GI50: > 100 µM (inactive)
Malme-3M
  GI50: > 100 µM (inactive)
A549
  GI50: > 100 µM (inactive)
UACC-62
  GI50: > 100 µM (inactive)
SF-295
  GI50: > 100 µM (inactive)
K562
  GI50: > 100 µM (inactive)
HT-29
  GI50: > 100 µM (inactive)
HL-60
  GI50: 2.85 µM (inactive)
SK-MEL-28
  GI50: > 100 µM (inactive)
UACC-257
  GI50: > 100 µM (inactive)
IGROV-1
  GI50: > 100 µM (inactive)
COLO 205
  GI50: > 100 µM (inactive)
BT-549
  GI50: > 100 µM (inactive)
A498
  GI50: > 100 µM (inactive)
Hs-578T
  GI50: > 100 µM (inactive)
MOLT-4
  GI50: > 100 µM (inactive)
U-251
  GI50: > 100 µM (inactive)
OVCAR-5
  GI50: > 100 µM (inactive)
HCT-15
  GI50: > 100 µM
SN12C
  GI50: > 100 µM (inactive)
ACHN
  GI50: > 100 µM (inactive)
NCI-H522
  GI50: > 100 µM (inactive)
UO-31
  GI50: > 100 µM (inactive)
DU-145
  GI50: > 100 µM (inactive)
OVCAR-8
  GI50: > 100 µM (inactive)
